Columns and labels:
[1] = target: 5-HT1D receptor (Homo sapiens, UniProt P28221); test: Radio-ligand binding assay 5-HT1D; conditions: 10 μM compound; [3H]-5-CT 2 nM; human cortex
Description: (§1) Determination of binding affinities for various 5-HT receptors was performed by radio-ligand binding assays. Briefly, tissue or cells expressing the receptor of interest were suspended in incubation buffer and radio-ligands and 10 μM N-(2-chloro-3,4-dimethoxybenzylidene-amino)guanidine were added. After incubation, separation of bound and free radio-ligand was done by multiple washings with buffer.
(§2) The results were presented as the percent inhibition of specific binding. The IC50 values were determined by a non-linear least square regression analysis using MathIQ™ (ID Business Solution Ltd., UK). The inhibition constants (Ki) were calculated using the equation of Cheng and Prusoff (Cheng Y, Prusoff W H, Biochem. Pharmacol. 22:3099-3108, 1973) using the observed IC50 of the tested compound, the concentration of radioligand employed in the assay and the historical values for the KD of the ligand.

[2] = target: T1, 5-HT2C receptor (Homo sapiens, UniProt P28335); test: Radio-ligand binding assay 5-HT2C
T1 sequence (P28335 33-458): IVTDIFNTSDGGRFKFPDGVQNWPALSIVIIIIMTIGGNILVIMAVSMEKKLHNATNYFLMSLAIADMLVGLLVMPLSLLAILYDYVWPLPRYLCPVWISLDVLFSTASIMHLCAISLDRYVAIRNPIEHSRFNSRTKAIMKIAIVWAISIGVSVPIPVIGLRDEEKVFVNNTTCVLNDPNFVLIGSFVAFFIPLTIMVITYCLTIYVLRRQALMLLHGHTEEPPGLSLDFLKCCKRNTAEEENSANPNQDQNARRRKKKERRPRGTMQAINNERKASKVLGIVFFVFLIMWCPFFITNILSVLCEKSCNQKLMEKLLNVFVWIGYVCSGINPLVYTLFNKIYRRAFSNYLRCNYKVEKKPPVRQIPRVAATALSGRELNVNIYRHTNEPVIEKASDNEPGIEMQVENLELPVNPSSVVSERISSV
Description: as §1, §2

[3] = target: T2, 5-HT4 receptor (Cavia porcellus, UniProt O70528); test: Radio-ligand binding assay 5-HT4; design: species or system Guinea pig
T2 construct: tissue or cells expressing the receptor of interest were suspended in incubation buffer; from tissue; host or cells: guinea-pig tissue (which tissue is not visible)
Description: as §1, §2

[4] = target: 5-HT7 receptor (Homo sapiens, UniProt P34969); test: Radio-ligand binding assay 5-HT7; conditions: 10 μM compound; [3H] LSD 2.5 nM; human rec. CHO cells
Description: as §1, §2

[5] = target: 5-HT4 receptor (Rattus norvegicus, UniProt Q62758); test: 5-HT4 functionality test; conditions: at 100 μM
Description: N-(2-chloro-3,4-dimethoxybenzylideneamino)guanidine was further tested for functionality against 5-HT2B (Cohen et al. (1987), J. Pharmacol. Exp. Ther. 243:264-269), 5-HT2C (Adlersber M, et al. (2000), J. Neurosci. Res. 61(6):674-685; Cussac D. et al. (2002), Mol. Pharmacol. 62(3):578-589) and 5-HT4 (Reeves et al. (1991), Br. J. Pharmacol. 103:1067-1072).

[6] = tested on: formalin-induced pain; test: Formalin test, inflammatory pain model; type: in vivo, rat; conditions: 30 mg/kg orally 60 min before formalin
Description: Inflammatory pain is associated with tissue damage and the resulting inflammatory process is related to conditions such as arthritis and many autoimmune disease states. The formalin test in rats is a widely used tool when studying inflammatory pain in animals (Dubuisson, D., and Dennis, S. G. (1977), Pain 4:161-174; Wheeler-Aceto, H., et al. (1990), Pain 40:229-238). This model allows the study of two different types of pain that appears in two separate phases: phase 1 which is a direct stimulation of the nerve by the formalin and thus resembles the acute pain, followed by phase 2 which is an inflammatory-reaction induced pain similar to the pain in, e.g., arthritis. […]
In accordance with the literature (Sufka K J, et al., Eur J Pain (1998), 2(4):351-8; Maione S, et al., Br. J. Pharmacol. 2007; 150:766-781), nociceptive response was monitored in consecutive 5-min periods for 60 min following formalin injection. In particular, nociceptive responses were recorded by measuring the cumulative time of lifting, licking, shaking and flinching of the injected paw per unit time (5 minutes). The nociceptive response was measured both as every 5 minutes and as total time of the first phase (0-15 min) and the second phase (15-60 min). […]

[7] = 10 different concentrations, Cheng-Prusoff, FIG. 1

T2 sequence (O70528 whole entry): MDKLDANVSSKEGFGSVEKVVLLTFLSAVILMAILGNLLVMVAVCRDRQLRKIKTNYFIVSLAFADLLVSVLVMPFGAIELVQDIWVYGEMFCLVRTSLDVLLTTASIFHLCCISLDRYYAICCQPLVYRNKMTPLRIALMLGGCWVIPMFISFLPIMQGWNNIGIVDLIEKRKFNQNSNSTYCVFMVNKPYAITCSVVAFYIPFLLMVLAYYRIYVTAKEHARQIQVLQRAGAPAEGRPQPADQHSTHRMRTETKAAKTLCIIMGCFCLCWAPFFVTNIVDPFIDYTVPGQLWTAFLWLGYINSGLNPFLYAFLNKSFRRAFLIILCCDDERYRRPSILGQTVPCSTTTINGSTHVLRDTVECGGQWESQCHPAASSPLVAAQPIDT
5-HT1D receptor, sequence (P28221 whole entry): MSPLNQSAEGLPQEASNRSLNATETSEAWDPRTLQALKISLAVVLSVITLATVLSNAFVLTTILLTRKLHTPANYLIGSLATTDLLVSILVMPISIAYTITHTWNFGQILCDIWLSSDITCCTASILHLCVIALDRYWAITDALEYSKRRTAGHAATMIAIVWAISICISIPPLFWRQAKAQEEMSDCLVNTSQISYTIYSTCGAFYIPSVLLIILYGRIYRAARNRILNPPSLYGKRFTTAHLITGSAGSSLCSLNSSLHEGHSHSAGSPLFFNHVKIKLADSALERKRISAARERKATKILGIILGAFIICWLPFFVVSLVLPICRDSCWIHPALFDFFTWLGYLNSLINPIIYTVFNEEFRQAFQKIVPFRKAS
5-HT7 receptor, sequence (P34969 whole entry): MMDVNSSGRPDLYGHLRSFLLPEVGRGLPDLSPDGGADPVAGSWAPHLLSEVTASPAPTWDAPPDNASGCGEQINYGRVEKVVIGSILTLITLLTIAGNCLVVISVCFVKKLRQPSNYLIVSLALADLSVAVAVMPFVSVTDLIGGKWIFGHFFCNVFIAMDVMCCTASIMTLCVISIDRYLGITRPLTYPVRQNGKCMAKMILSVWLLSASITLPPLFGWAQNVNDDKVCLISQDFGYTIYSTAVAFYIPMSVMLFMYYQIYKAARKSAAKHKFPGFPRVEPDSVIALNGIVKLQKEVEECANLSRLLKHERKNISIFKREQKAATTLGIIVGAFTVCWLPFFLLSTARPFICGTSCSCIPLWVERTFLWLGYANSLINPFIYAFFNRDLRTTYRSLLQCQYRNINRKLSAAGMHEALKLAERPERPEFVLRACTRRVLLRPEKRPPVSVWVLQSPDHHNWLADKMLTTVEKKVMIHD
5-HT4 receptor (Rattus norvegicus, UniProt Q62758), sequence (Q62758 whole entry): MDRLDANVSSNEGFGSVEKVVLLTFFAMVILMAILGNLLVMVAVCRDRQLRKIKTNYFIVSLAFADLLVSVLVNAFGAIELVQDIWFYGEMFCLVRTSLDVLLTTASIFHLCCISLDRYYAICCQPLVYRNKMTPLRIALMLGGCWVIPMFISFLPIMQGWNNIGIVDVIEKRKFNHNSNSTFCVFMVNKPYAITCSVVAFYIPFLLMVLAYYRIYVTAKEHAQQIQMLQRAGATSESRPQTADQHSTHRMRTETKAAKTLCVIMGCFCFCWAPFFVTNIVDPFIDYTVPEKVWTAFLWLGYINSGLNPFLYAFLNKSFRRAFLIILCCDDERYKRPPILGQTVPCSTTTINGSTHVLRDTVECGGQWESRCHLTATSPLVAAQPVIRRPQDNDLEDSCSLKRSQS

COc1ccc(C=NNC(=N)N)c(Cl)c1OC [N-(2-chloro-3,4-dimethoxybenzylideneamino)guanidine]
inhibition at 10 µM [1]: -5.7%
inhibition at 10 µM [2]: 80%
Ki [2, 7]: 880 nM
inhibition at 10 µM ([3]; 10 μM compound, [3H] GR113808 0.2 nM, guinea pig striata): 99%
Ki [3, 7]: 276 nM
inhibition at 10 µM [4]: 53%
effect on 5-HT4 (functionality) [5]: no significant effect
nociceptive response, first phase (0-15 min) [6]: without significantly influencing
nociceptive response, phase 2 (15-60 min), inflammatory pain ([6]; FIG. 6): significantly reduced the inflammatory pain response
